Earlier results as cited in patent US20110151028A1, “Topical vaginal preparation” (priority 2009, published 2011).

Settings: carrier: standard hydrophilic transdermal carrier, propylene glycol

In the case of CC[C@H]1OC(=O)[C@H](C)[C@@H](O[C@H]2C[C@@](C)(OC)[C@@H](O)[C@H](C)O2)[C@H](C)[C@@H](O[C@@H]2O[C@H](C)C[C@H](N(C)C)[C@H]2O)[C@](C)(O)C[C@@H](C)C(=O)[C@H](C)[C@@H](O)[C@]1(C)O [erythromycin], the “systemic absorption of transdermally delivered erythromycin” value is given as “rapid systemic absorption”.
